Measured values: patent publication EP0637588A1, “ACTIVE OXYGEN INHIBITOR COMPOSITION” (SHISEIDO COMPANY LIMITED, priority 1993, dated 1994)

Tested on: polymorphonuclear leukocyte (PMNs)
Assay: Suppressing action on production of active oxygen from neutrophils (OPZ-stimulated, FCLA dependent chemiluminescence)
Type: cell-based, white Japanese rabbit
Conditions: Oryctolagus cuniculus, PMNs stimulated by opsonized zymosan (OPZ), 37°C, read-out: Suppressing Action on Production of Active Oxygen (Suppressive Rate %)
Experimental: A 400 mL amount of physiological saline solution containing 0.2% glycogen was administered by drip into the abdominal cavity of a white Japanese rabbit having about 3 kg body weight without anesthesia. After 16 hours, 400 ml of sterilized physiological saline solution was administered, the cavity was massaged well, then the ascites was sampled. This was centrifuged at 100 × g to obtain a precipitate which was then suspended in a Hanks Balanced Salt Solution (HBSS) and adjusted to 5 x 10⁵ cells/mL. This was used as the polymorphonuclear leukocyte (PMNs) fraction. The action on the production of active oxygen by opsonized zymosan (OPZ) was studied as follows: To PMNs (480 µl) were added 3,7-dihydro-6-[4-[2-(N'-(5-fluoresceinyl)thioureid)ethoxy]phenyl]-2-methylimidazo[1,2-a]pyradine-3-on·sodium salt (FCLA) (2 µM) and various concentrations of test compounds. The resulting mixture was incubated at 37°C for 10 minutes, OPZ was added in an amount of 5 µL, and then the FCLA dependent chemiluminescence was measured using a photon counter (made by BertHold of Germany) under a constant temperature of 37°C along with the elapse of time.

O=C1O[C@H]([C@@H](O)CO)C(O)=C1O [Ascorbic acid]
inhibition at 0.1 µM (Concentration 0.1 µM): 20.1% | inhibition at 1 µM (Concentration 1.0 µM): 51.7% | inhibition at 10 µM (Concentration 10 µM): 86.8%
